Reference: ChEMBL document CHEMBL1201862, “PubChem BioAssay data set” (2004)
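Where inhibition never reached the appropriate level, the endpoint shown equals the highest concentration tested. Otherwise, values were interpolated linearly from a five-concentration, 48-hour dose response in 96-well plates. At the GI50, growth is halved.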 The source made the active and inactive calls. Cut-off read from the data, not from the text of the source: active = GI50 up to about 1.1 µM and inactive = higher.

Tests used:
Assay in all cases: NCI anticancer screen, dose series, 48 h
[1] = system: SN12C
[2] = system: UACC-257
[3] = system: HCT-116
[4] = system: M14
[5] = system: UACC-62
[6] = system: NCI-H522
[7] = system: HOP-92
[8] = system: SNB-19
[9] = system: RPMI-8226
[10] = system: KM12
[11] = system: SW-620
[12] = system: SF-295
[13] = system: SF-268
[14] = system: EKVX
[15] = system: OVCAR-5
[16] = system: OVCAR-8
[17] = system: LOX IMVI
[18] = system: U-251
[19] = system: HT-29

Measured: GI50

O=C(O)/C=C/C(=O)Nc1nc[nH]n1
inactive: [1] > 100 µM | [2] > 100 µM | [3] > 100 µM | [4] > 100 µM | [5] > 100 µM | [6] > 100 µM | [7] > 100 µM | [8] > 100 µM | [9] > 100 µM | [10] > 100 µM | [11] > 100 µM | [12] > 100 µM | [13] > 100 µM | [14] > 100 µM | [15] > 100 µM | [16] > 100 µM | [17] > 100 µM | [18] > 100 µM | [19] > 100 µM

CCCCc1ccc(Nc2nc(Cl)c3[nH]cnc3n2)cc1
inactive: [1] 22.4 µM | [2] 16.2 µM | [3] 16.3 µM | [4] 20.9 µM | [5] 16.4 µM | [6] 24.2 µM | [7] 11.6 µM | [8] 19.1 µM | [9] 33.2 µM | [10] 17.1 µM | [11] 19.2 µM | [12] 17.7 µM | [13] 22 µM | [14] 33.8 µM | [15] 40.6 µM | [16] 18.4 µM | [17] 13.7 µM | [19] 19.9 µM

C#CCOC(=O)[C@@H](C)c1ccc2cc(OC)ccc2c1
inactive: [1] > 100 µM | [2] 96.2 µM | [3] > 100 µM | [4] > 100 µM | [5] > 100 µM | [6] 40.2 µM | [7] 79.6 µM | [8] > 100 µM | [9] 29.5 µM | [10] > 100 µM | [11] > 100 µM | [12] > 100 µM | [13] > 100 µM | [14] 66.2 µM | [15] > 100 µM | [16] > 100 µM | [17] 70.1 µM | [18] > 100 µM

Nc1ccc(-c2nc3ccccc3s2)cc1C(F)(F)F
inactive: [1] 13.6 µM | [2] 15.6 µM | [3] 13.4 µM | [4] 14.9 µM | [5] 16.9 µM | [6] 16.8 µM | [7] 16.3 µM | [8] 17.4 µM | [9] 16.5 µM | [10] 16.1 µM | [11] 16.4 µM | [12] 17.4 µM | [13] 16 µM | [14] 11 µM | [16] 18.6 µM | [17] 16.4 µM | [18] 15 µM | [19] 15.5 µM

N#CSC#Cc1ccc(C#CSC#N)cc1
inactive: [1] 18 µM | [2] 17.3 µM | [3] 19 µM | [5] 18.1 µM | [6] 11.1 µM | [7] 12.5 µM | [8] 21.3 µM | [9] > 100 µM | [10] 19.4 µM | [11] 19.2 µM | [12] 20.9 µM | [13] 21.5 µM | [14] 18.5 µM | [15] 19.2 µM | [16] 19.6 µM | [17] 16.3 µM | [18] 21.5 µM | [19] 20.1 µM

N=C(N)N/N=C\c1c(-c2ccccc2)nc2sccn12
inactive: [1] 15.4 µM | [2] 13.4 µM | [3] 15.2 µM | [5] 15.9 µM | [6] 12.1 µM | [7] 14.1 µM | [8] 14.3 µM | [9] 20 µM | [10] 14.2 µM | [11] 12.9 µM | [12] 14.7 µM | [13] 16.4 µM | [14] 14.5 µM | [15] 16.9 µM | [16] 16.5 µM | [17] 16.3 µM | [18] 15.2 µM | [19] 15.3 µM

C1COC(NC(C2CC2)C2CC2)=N1 [RILMENIDINE]
inactive: [2] > 100 µM | [3] > 100 µM | [4] > 100 µM | [5] > 100 µM | [6] > 100 µM | [7] > 100 µM | [8] > 100 µM | [9] > 100 µM | [10] > 100 µM | [11] > 100 µM | [12] > 100 µM | [14] > 100 µM | [15] > 100 µM | [16] > 100 µM | [17] > 100 µM | [18] > 100 µM | [19] > 100 µM

COc1ccc2oc3c4c2c1CCC4CCC3=O (centres undefined)
inactive: [1] > 100 µM | [2] 16.8 µM | [4] > 100 µM | [5] > 100 µM | [6] 58.2 µM | [7] 55.7 µM | [8] > 100 µM | [9] > 100 µM | [10] > 100 µM | [11] > 100 µM | [12] > 100 µM | [13] 85.9 µM | [14] > 100 µM | [15] > 100 µM | [16] 59.4 µM | [17] > 100 µM | [18] > 100 µM | [19] > 100 µM
